# Measured values: patent US10368545B2, “Substituted 2-thioimidazolylcarboxamides as pesticides” (BAYER CROPSCIENCE AKTIENGESELLSCHAFT, priority 2015, dated 2019)
# Several values for one entry are separate records, joined by “and”; a condition that tells them apart may be missing. Equal entries are not always repeated.
# System: green peach aphid (Myzus persicae)
# Assay: Myzus persicae spray test (Chinese cabbage leaf discs)
# Type: in vivo
# Details: Myzus persicae, foliar, read-out: efficacy (aphids killed)
# Method: Myzus persicae—Spray Test
# Solvent: 78 parts by weight of acetone • • 1.5 parts by weight of dimethylformamide
# (§1) Emulsifier: alkylaryl polyglycol ether
# (§2) To produce a suitable active compound preparation, 1 part by weight of active compound is dissolved using the stated parts by weight of solvent and made up with water containing an emulsifier concentration of 1000 ppm until the desired concentration is attained. To produce further test concentrations, the preparation is diluted with emulsifier-containing water.
# Discs of Chinese cabbage leaves (Brassica pekinensis) infested by all stages of the green peach aphid (Myzus persicae) are sprayed with an active compound preparation of the desired concentration.
# After 5 or 6 days, the efficacy in % is determined. 100% means that all the aphids were killed; 0% means that no aphids were killed.
row,Compound,pest or weed control at 500 g/ha
1,CN(C(=O)c1cnc(SC(F)(F)F)n1C)c1cccnc1 [I-A-37],100%
2,CN(C(=O)c1cnc(SC(F)F)n1C)c1cccnc1 [I-A-38],90%

# Same assay, conditions: Myzus persicae, foliar; application rate 500 g/ha; after 5 or 6 days; Chinese cabbage leaf discs; read-out: efficacy (aphids killed)
row,Compound,pest or weed control at 500 g/ha
1,Cc1cc(C)nc(Sc2ncc(C(=O)N(C)c3cccnc3)n2C)n1 [I-A-1],100%
2,CN(C(=O)c1cnc(SCC2CC2)n1C)c1cccnc1 [I-A-2],100%
3,CN(C(=O)c1cnc(Sc2ncccn2)n1C)c1cccnc1 [I-A-3],100%
4,CSc1ncc(C(=O)N(C)c2cccnc2)n1C [I-A-45],100%
5,CN(C(=O)c1cnc(Sc2ccc(F)cc2)n1C)c1cccnc1 [I-A-62],90%

# Same assay, conditions: application rate 20 g/ha; after 5 or 6 days; Chinese cabbage leaf discs
row,Compound,efficacy (aphids killed)
1,CSc1cccc(Sc2ncc(C(=O)N(C)c3cccnc3)n2C)c1 [I-A-9],90%

# Same assay, conditions: application rate 500 g/ha; after 5 or 6 days; Chinese cabbage leaf discs
row,Compound,efficacy (aphids killed)
1,CCCCSc1ncc(C(=O)N(C)c2cccnc2)n1C [I-A-5],90%
2,CN(C(=O)c1cnc(S(C)(=O)=O)n1C)c1cccnc1 [I-A-8],100%
3,CN(C(=O)c1cnc(SCC(F)(F)F)n1C)c1cccnc1 [I-A-10],100%
4,CN(C(=O)c1cnc(Sc2ccccc2)n1C)c1cccnc1 [I-A-11],100%
5,Cc1ccc(Sc2ncc(C(=O)N(C)c3cccnc3)n2C)cc1 [I-A-12],90%
6,CCSCCSc1ncc(C(=O)N(C)c2cccnc2)n1C [I-A-14],90%
7,COCCSc1ncc(C(=O)N(C)c2cccnc2)n1C [I-A-18],100%
8,CC(C)Sc1ncc(C(=O)N(C)c2cccnc2)n1C [I-A-19],100%
9,CCCSc1ncc(C(=O)N(C)c2cccnc2)n1C [I-A-21],100%
10,CCOCCSc1ncc(C(=O)N(C)c2cccnc2)n1C [I-A-22],100%
11,CSCCSc1ncc(C(=O)N(C)c2cccnc2)n1C [I-A-26],100%
12,C=CCSc1ncc(C(=O)N(C)c2cccnc2)n1C [I-A-27],90%
13,C#CCSc1ncc(C(=O)N(C)c2cccnc2)n1C [I-A-30],90%

# System: green peach aphid (Myzus persicae)
# Assay: Contrasting example: Myzus persicae spray test (MYZUPE)
# Type: in vivo
# Details: MYZUPE, 100 g ai/ha, 6 dat
# Method: Myzus persicae—Spray Test (MYZUPE)
# Solvents: 78.0 parts by weight of acetone • • 1.5 parts by weight of dimethylformamide
# as §1, §2
# Discs of Chinese cabbage leaves (Brassica pekinensis), infested by all stages of the green peach aphid (Myzus persicae) are sprayed with an active compound preparation of the desired concentration.
# After the desired period of time, the efficacy in % is determined. 100% means that all aphids were killed; 0% means that no aphids were killed.
row,Compound,% efficacy
1,CCCCSc1ncc(C(=O)N(C)c2cccnc2)n1C [I-A-5],100%
2,CN(C(=O)c1cnc(S(C)(=O)=O)n1C)c1cccnc1 [I-A-8],90%
3,CSc1cccc(Sc2ncc(C(=O)N(C)c3cccnc3)n2C)c1 [I-A-9],70%
4,CN(C(=O)c1cnc(SCC(F)(F)F)n1C)c1cccnc1 [I-A-10],100%
5,CN(C(=O)c1cnc(Sc2ccccc2)n1C)c1cccnc1 [I-A-11],90%
6,Cc1ccc(Sc2ncc(C(=O)N(C)c3cccnc3)n2C)cc1 [I-A-12],70%
7,CCSCCSc1ncc(C(=O)N(C)c2cccnc2)n1C [I-A-14],90%
8,COCCSc1ncc(C(=O)N(C)c2cccnc2)n1C [I-A-18],90%
9,CC(C)Sc1ncc(C(=O)N(C)c2cccnc2)n1C [I-A-19],90%
10,CCCSc1ncc(C(=O)N(C)c2cccnc2)n1C [I-A-21],100%
11,CCOCCSc1ncc(C(=O)N(C)c2cccnc2)n1C [I-A-22],90%
12,CSCCSc1ncc(C(=O)N(C)c2cccnc2)n1C [I-A-26],70%
13,C=CCSc1ncc(C(=O)N(C)c2cccnc2)n1C [I-A-27],70%
14,C#CCSc1ncc(C(=O)N(C)c2cccnc2)n1C [I-A-30],90%

# Same assay, conditions: Myzus persicae, 144 h, read-out: % efficacy
row,Compound,pest or weed control at 100 g/ha
1,CN(C(=O)c1cnc(SC(F)(F)F)n1C)c1cccnc1 [I-A-37],100%
2,CN(C(=O)c1cnc(SC(F)F)n1C)c1cccnc1 [I-A-38],70%

# Same assay, conditions: Myzus persicae, 144 h; MYZUPE, 100 g ai/ha, 6 dat; read-out: % efficacy
row,Compound,pest or weed control at 100 g/ha
1,Cc1cc(C)nc(Sc2ncc(C(=O)N(C)c3cccnc3)n2C)n1 [I-A-1],100%
2,CN(C(=O)c1cnc(SCC2CC2)n1C)c1cccnc1 [I-A-2],90%
3,CN(C(=O)c1cnc(Sc2ncccn2)n1C)c1cccnc1 [I-A-3],90%
4,CSc1ncc(C(=O)N(C)c2cccnc2)n1C [I-A-45],90%
5,CN(C(=O)c1cnc(Sc2ccc(F)cc2)n1C)c1cccnc1 [I-A-62],70%

# System: not listed separately
# Assay: log P by HPLC on reversed-phase C18 columns (OECD Guideline 117)
# Type: physicochemical
# Details: acidic range, pH 2.7, 0.1% aqueous formic acid / acetonitrile
# Method: The log P values were determined in accordance with OECD Guideline 117 (EC Directive 92/69/EEC) by HPLC (high-performance liquid chromatography) using reversed-phase (RP) columns (C18), by the following methods:
# [a] The LC-MS determination in the acidic range was carried out at pH 2.7 with 0.1% aqueous formic acid and acetonitrile (contains 0.1% formic acid) as mobile phases; linear gradient from 10% acetonitrile to 95% acetonitrile.
# [b] LC-MS determination in the neutral range was carried out at pH 7.8 with 0.001 molar aqueous ammonium hydrogencarbonate solution and acetonitrile as mobile phases; linear gradient from 10% acetonitrile to 95% acetonitrile.
row,Compound,log P[a]
1,Cc1cc(C)nc(Sc2ncc(C(=O)N(C)c3cccnc3)n2C)n1 [I-A-1],1.26

# Same assay, conditions: method [a]
row,Compound,logP[a]
1,CCCCSc1ncc(C(=O)N(C)c2cccnc2)n1C [I-A-5],1.67
2,CN(C(=O)c1cnc(S(C)(=O)=O)n1C)c1cccnc1 [I-A-8],0.45
3,CSc1cccc(Sc2ncc(C(=O)N(C)c3cccnc3)n2C)c1 [I-A-9],2.0
4,CN(C(=O)c1cnc(SCC(F)(F)F)n1C)c1cccnc1 [I-A-10],1.41
5,CN(C(=O)c1cnc(Sc2ccccc2)n1C)c1cccnc1 [I-A-11],1.55
6,Cc1ccc(Sc2ncc(C(=O)N(C)c3cccnc3)n2C)cc1 [I-A-12],1.89
7,CCSCCSc1ncc(C(=O)N(C)c2cccnc2)n1C [I-A-14],1.61
8,COCCSc1ncc(C(=O)N(C)c2cccnc2)n1C [I-A-18],0.76
9,CC(C)Sc1ncc(C(=O)N(C)c2cccnc2)n1C [I-A-19],1.23
10,CCCSc1ncc(C(=O)N(C)c2cccnc2)n1C [I-A-21],1.31
11,CCOCCSc1ncc(C(=O)N(C)c2cccnc2)n1C [I-A-22],1.04
12,CSCCSc1ncc(C(=O)N(C)c2cccnc2)n1C [I-A-26],1.23
13,C=CCSc1ncc(C(=O)N(C)c2cccnc2)n1C [I-A-27],1.08 and 1.11
14,C#CCSc1ncc(C(=O)N(C)c2cccnc2)n1C [I-A-30],0.87

# Same assay, conditions: method [b]
row,Compound,logP[b]
1,CCCCSc1ncc(C(=O)N(C)c2cccnc2)n1C [I-A-5],1.99
2,CN(C(=O)c1cnc(S(C)(=O)=O)n1C)c1cccnc1 [I-A-8],0.67
3,CSc1cccc(Sc2ncc(C(=O)N(C)c3cccnc3)n2C)c1 [I-A-9],2.12
4,CN(C(=O)c1cnc(SCC(F)(F)F)n1C)c1cccnc1 [I-A-10],1.54
5,CN(C(=O)c1cnc(Sc2ccccc2)n1C)c1cccnc1 [I-A-11],1.75
6,Cc1ccc(Sc2ncc(C(=O)N(C)c3cccnc3)n2C)cc1 [I-A-12],2.03
7,CCSCCSc1ncc(C(=O)N(C)c2cccnc2)n1C [I-A-14],1.87
8,COCCSc1ncc(C(=O)N(C)c2cccnc2)n1C [I-A-18],1.14
9,CC(C)Sc1ncc(C(=O)N(C)c2cccnc2)n1C [I-A-19],1.53
10,CCCSc1ncc(C(=O)N(C)c2cccnc2)n1C [I-A-21],1.60
11,CCOCCSc1ncc(C(=O)N(C)c2cccnc2)n1C [I-A-22],1.41
12,CSCCSc1ncc(C(=O)N(C)c2cccnc2)n1C [I-A-26],1.55
13,C=CCSc1ncc(C(=O)N(C)c2cccnc2)n1C [I-A-27],1.40
14,C#CCSc1ncc(C(=O)N(C)c2cccnc2)n1C [I-A-30],1.22

# Same assay, conditions: neutral range, pH 7.8, 0.001 molar aqueous ammonium hydrogencarbonate / acetonitrile
row,Compound,log P[n]
1,Cc1cc(C)nc(Sc2ncc(C(=O)N(C)c3cccnc3)n2C)n1 [I-A-1],1.46

# Same assay, conditions: pH 2.7; method [a]; read-out: logP[a]
row,Compound,chromatographic logP
1,CN(C(=O)c1cnc(SC(F)F)n1C)c1cccnc1 [I-A-38],0.91

# Same assay, conditions: pH 7.8; method [b]; read-out: logP[b]
row,Compound,chromatographic logP
1,CN(C(=O)c1cnc(SC(F)F)n1C)c1cccnc1 [I-A-38],1.17

# Same assay, conditions: reversed-phase C18 HPLC column, pH 2.7, acidic range, pH 2.7, 0.1% aqueous formic acid / acetonitrile; read-out: log P[a]
row,Compound,chromatographic logP
1,Cc1cc(C)nc(Sc2ncc(C(=O)N(C)c3cccnc3)n2C)n1 [I-A-1],1.31
2,CN(C(=O)c1cnc(SCC2CC2)n1C)c1cccnc1 [I-A-2],1.28
3,CN(C(=O)c1cnc(Sc2ncccn2)n1C)c1cccnc1 [I-A-3],0.69

# Same assay, conditions: reversed-phase C18 HPLC column, pH 2.7, method [a]; read-out: logP[a]
row,Compound,chromatographic logP
1,CN(C(=O)c1cnc(SC(F)(F)F)n1C)c1cccnc1 [I-A-37],1.29
2,CSc1ncc(C(=O)N(C)c2cccnc2)n1C [I-A-45],0.54
3,CN(C(=O)c1cnc(Sc2ccc(F)cc2)n1C)c1cccnc1 [I-A-62],1.66

# Same assay, conditions: reversed-phase C18 HPLC column, pH 7.8, method [b]; read-out: logP[b]
row,Compound,chromatographic logP
1,CN(C(=O)c1cnc(SC(F)(F)F)n1C)c1cccnc1 [I-A-37],1.45
2,CSc1ncc(C(=O)N(C)c2cccnc2)n1C [I-A-45],1.04
3,CN(C(=O)c1cnc(Sc2ccc(F)cc2)n1C)c1cccnc1 [I-A-62],1.87

# Same assay, conditions: reversed-phase C18 HPLC column, pH 7.8, neutral range, pH 7.8, 0.001 molar aqueous ammonium hydrogencarbonate / acetonitrile; read-out: log P[n]
row,Compound,chromatographic logP
1,Cc1cc(C)nc(Sc2ncc(C(=O)N(C)c3cccnc3)n2C)n1 [I-A-1],1.41
2,CN(C(=O)c1cnc(SCC2CC2)n1C)c1cccnc1 [I-A-2],1.81
3,CN(C(=O)c1cnc(Sc2ncccn2)n1C)c1cccnc1 [I-A-3],0.98
